Laboratory results: PubChem BioAssay (NCI)
Where “and” joins values, the source holds several entries; their conditions need not be identical. Identical values can stand only once.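 The compound was tested at five concentrations on cells cultured in 96-well plates, with a 48-hour exposure period. Abbreviation: GI50, concentration required for 50% inhibition of growth. TGI: concentration producing complete growth inhibition.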

Experiments:
Test in all cases: NCI anticancer screen, dose series, 48 h
786-0 renal = system: 786-0 renal
MALME-3M melanoma = system: MALME-3M melanoma
NCI-H226 lung = system: NCI-H226 lung
NCI-H23 lung = system: NCI-H23 lung
NCI-H522 lung = system: NCI-H522 lung
SK-MEL-5 melanoma = system: SK-MEL-5 melanoma
SNB-19 CNS = system: SNB-19 CNS
OVCAR-8 ovarian = system: OVCAR-8 ovarian
RXF 393 renal = system: RXF 393 renal
SNB-75 CNS = system: SNB-75 CNS

Row | Structure (SMILES) | TGI (786-0 renal) [µM] | TGI (MALME-3M melanoma) [µM] | TGI (NCI-H226 lung) [µM] | TGI (NCI-H23 lung) [µM] | TGI (NCI-H522 lung) | TGI (SK-MEL-5 melanoma) [µM] | TGI (SNB-19 CNS) [µM] | GI50 (786-0 renal) [µM] | GI50 (MALME-3M melanoma) [µM] | GI50 (NCI-H226 lung) [µM] | GI50 (NCI-H23 lung) [µM] | GI50 (NCI-H522 lung) [µM] | GI50 (OVCAR-8 ovarian) [µM] | TGI (OVCAR-8 ovarian) | GI50 (RXF 393 renal) [µM] | TGI (RXF 393 renal) | GI50 (SK-MEL-5 melanoma) [µM] | GI50 (SNB-19 CNS) [µM] | GI50 (SNB-75 CNS) [µM] | TGI (SNB-75 CNS) [µM]
1 | Clc1cc2nsnc2c(Cl)n1 | 31.2 | 31.3 | 42.3 | 39.9 | 36.7 µM | 32.7 | 36.7 | – | – | – | – | – | – | – | – | – | – | – | – | –
2 | C#Cc1ccc(-n2c(/C=C/c3ccc(C(F)(F)F)cc3)nc3ncccc3c2=O)cc1 | 3.7 | 3.57 | 4.09 | 19 | 3.08 µM | 2.87 | 4.25 | 2.06 | 1.64 | 1.99 | 3.9 | 1.65 | 1.87 | 4.67 µM | 1.79 | 3.79 µM | 1.49 | 1.91 | 1.81 | 7.22
3 | CCCCCN(CCCCC)CC(O)c1cc(C)c2ccc3cc(C(C)C)ccc3c2c1 (stereo not given) | 3.41 | 3.85 | 3.97 | 3.4 | 3.85 µM | 3.62 | 3.73 | 1.79 | 1.92 | 1.85 | 1.77 | 1.81 | 2.55 | 6.46 µM | 1.57 | 3.1 µM | 1.83 | 1.88 | 1.31 | 2.65
4 | O=S(=O)(NC1=NCCN1C(=S)SN1CCn2c1nsc2=S)c1ccc(OC(F)(F)F)cc1 | 21.6 | 32.7 | 38.7 | 39 | 9.8 µM | 21.8 | 32.1 | 8.53 | 5.25 | 18 | 12.7 | 2.92 | 16.3 | 39.3 µM | 2.77 | 8.1 µM | 8.49 | 16.8 | 14.7 | 34.4
5 | CC[C@@]1(O)C[C@H](OC2CC(N(C)C)C(O)C(C)O2)c2c(O)c3c(c(O)c2[C@H]1OC1CC(N(C)C)C(O)C(C)O1)C(=O)c1cccc(O)c1C3=O (stereo not given in full) | – | – | – | – | 0.0857 µM and < 0.01 µM | – | 11.1 | < 0.01 | < 0.01 | < 0.01 | < 0.01 | < 0.01 | < 0.01 | 0.4 µM and 1.1 µM | < 0.01 | 0.0643 µM and < 0.01 µM | < 0.01 | < 0.01 | < 0.01 | –
6 | COc1cc(Cc2cnc(/N=C3\C(=O)N(CN4CCN(c5c(F)cc6c(=O)c(C(=O)O)cn(C7CC7)c6c5OC)CC4C)c4ccc(F)cc43)nc2N)cc(OC)c1OC (stereo not given) | 23.1 | – | 43.3 | 42.9 | > 100 µM | 35.2 | 51.3 | 11.1 | – | 13.8 | 18.1 | 63.5 | 32.1 | > 100 µM | 16 | 49.1 µM | 18.3 | 17.7 | – | –
7 | O=C(Nc1ccccc1)NS(=O)(=O)c1ccc(-n2nc3c(c2-c2cccs2)Cc2ccccc2-3)cc1 | 35.2 | – | 59 | 29.6 | > 100 µM | 31.5 | > 100 | 17.6 | – | 19.2 | 12.2 | 31.5 | 28.3 | > 100 µM | 85.3 | > 100 µM | 15.6 | > 100 | 70.4 | > 100
8 | Cn1c2ccccc2c2c(Nc3ccccc3)c3ccccc3nc21 | 41.8 | 33.9 | 46.4 | 67.4 | > 100 µM | 28.1 | > 100 | 17.3 | 15.4 | 16.4 | 31.4 | 45.6 | 27.3 | > 100 µM | – | – | 13.7 | 11.5 | 26.5 | > 100
9 | O=C(O)CCc1coc2ccc(O)cc12 | > 100 | – | – | > 100 | – | > 100 | > 100 | – | – | – | – | – | – | > 100 µM | – | > 100 µM | – | – | – | > 100
10 | Cc1nc2ccccc2c(=O)n1-c1ccccc1I | > 100 | > 100 | > 100 | > 100 | > 100 µM | > 100 | > 100 | – | – | – | – | – | – | > 100 µM | – | – | – | – | – | > 100
11 | Cc1ccc2c(=O)cc(-c3ccc(F)cc3)[nH]c2n1 | > 100 | > 100 | > 100 | > 100 | 84.7 µM | > 100 | > 100 | 42.2 | – | – | – | – | – | > 100 µM | – | – | 31.3 | – | – | 49.6
12 | CC1=C(C(=O)Nc2ccc(Cl)c(Cl)c2)C(c2cccc(Oc3ccccc3)c2)NC(=S)N1 (stereo not given) | 17.4 | – | 19.5 | – | 21.8 µM | 15 | 14.1 | 8.29 | – | 9.68 | – | 11.7 | 7.8 | 16.8 µM | 7.33 | 22.1 µM | 7.89 | 7.07 | 8.26 | 18.4
13 | O=C1C2C(C(=O)N1OS(=O)(=O)c1ccccc1)N(Cc1ccccc1)C(=O)N2Cc1ccccc1 (stereo not given) | > 100 | > 100 | > 100 | > 100 | > 100 µM | > 100 | > 100 | – | – | – | – | – | – | – | – | > 100 µM | – | – | – | > 100
14 | O=C(O)CSc1ccc([N+](=O)[O-])cc1[N+](=O)[O-] | > 100 | > 100 | – | > 100 | > 100 µM | – | > 100 | – | – | – | – | – | – | > 100 µM | – | > 100 µM | – | – | – | > 100
15 | CN1C(=O)C(C)(C)C2(SC(C)(C)C2(C)C)N(C)C1=S (stereo not given) | > 100 | > 100 | > 100 | > 100 | > 100 µM | – | > 100 | – | – | – | – | – | – | > 100 µM | – | > 100 µM | – | – | – | > 100
16 | NC(=O)c1sc(-n2cnc3ccccc32)cc1OCc1ccccc1Br | > 25 | – | > 25 | > 25 | 12.7 µM | > 25 | > 25 | 11.1 | – | 11.9 | 4.03 | 3.99 | 4.83 | 23.5 µM | 1.73 | > 25 µM | 4.75 | 11.6 | 10.2 | > 25
